# Data reported in patent US20240208968A1, “ALPHA V BETA 6 AND ALPHA V BETA 1 INTEGRIN INHIBITORS AND USES THEREOF” (DiCE Molecules SV, Inc., priority 2021, published 2024).
# Structures can show the parent of a compound that is named as a salt.
# Experiments:
# αvβ1 = αvβ1 (Homo sapiens, UniProt P05556+P06756); assay: Solid Phase Integrin αvβ1 Assay; format: binding
# In short: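 Wells coated with 1 µg/mL recombinant TGFb1-LAP and blocked with 2% BSA/TBST, 1 mM MnCl2; αvβ1 (added at 0.2 µg/mL) and compound incubated 90 min at room temperature. Bound integrin detected by streptavidin-HRP (20 min) and TMB after Mn-containing washes; IC50 by four-parameter logistic fit.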
# αvβ6 = αvβ6 (Homo sapiens, UniProt P06756+P18564); assay: Solid Phase Integrin αvβ6 Assay; format: binding
# In short: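 Plates coated with 1 μg/mL recombinant TGFb1-LAP; compounds and αvβ6 (0.2 μg/mL diluted stock) incubated 1 h at room temperature in 2% BSA/TBST with 1 mM MnCl2. Bound integrin detected with streptavidin-HRP and TMB; IC50 from four-parameter logistic fits.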
# αvβ6, sequence (P06756 31-992 limits assumed): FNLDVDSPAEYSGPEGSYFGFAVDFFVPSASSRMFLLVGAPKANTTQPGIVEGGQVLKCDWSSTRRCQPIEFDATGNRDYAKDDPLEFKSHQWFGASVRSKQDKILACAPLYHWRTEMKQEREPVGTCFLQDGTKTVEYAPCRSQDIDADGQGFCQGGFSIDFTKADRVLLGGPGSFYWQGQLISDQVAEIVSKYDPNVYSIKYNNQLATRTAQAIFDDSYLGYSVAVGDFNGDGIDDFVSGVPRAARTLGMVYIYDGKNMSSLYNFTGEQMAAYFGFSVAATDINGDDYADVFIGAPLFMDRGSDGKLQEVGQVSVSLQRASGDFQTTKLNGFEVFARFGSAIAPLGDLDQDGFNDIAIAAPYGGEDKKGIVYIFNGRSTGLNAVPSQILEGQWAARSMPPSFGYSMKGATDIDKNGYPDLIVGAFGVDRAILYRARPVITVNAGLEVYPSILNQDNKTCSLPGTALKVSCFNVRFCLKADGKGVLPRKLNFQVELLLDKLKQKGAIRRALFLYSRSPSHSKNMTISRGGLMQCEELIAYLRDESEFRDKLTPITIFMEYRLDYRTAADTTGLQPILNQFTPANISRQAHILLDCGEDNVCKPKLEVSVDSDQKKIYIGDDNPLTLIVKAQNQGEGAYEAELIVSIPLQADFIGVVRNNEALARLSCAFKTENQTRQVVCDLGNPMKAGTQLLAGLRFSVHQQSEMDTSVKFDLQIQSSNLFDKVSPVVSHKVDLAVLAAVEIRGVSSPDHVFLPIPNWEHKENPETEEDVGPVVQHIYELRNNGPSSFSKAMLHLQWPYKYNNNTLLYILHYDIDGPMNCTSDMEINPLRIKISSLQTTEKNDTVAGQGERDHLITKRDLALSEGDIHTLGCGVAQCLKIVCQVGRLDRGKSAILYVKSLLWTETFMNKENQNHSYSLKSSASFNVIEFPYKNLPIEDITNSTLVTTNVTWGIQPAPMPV
# αvβ6, sequence (P18564 22-707 limits assumed): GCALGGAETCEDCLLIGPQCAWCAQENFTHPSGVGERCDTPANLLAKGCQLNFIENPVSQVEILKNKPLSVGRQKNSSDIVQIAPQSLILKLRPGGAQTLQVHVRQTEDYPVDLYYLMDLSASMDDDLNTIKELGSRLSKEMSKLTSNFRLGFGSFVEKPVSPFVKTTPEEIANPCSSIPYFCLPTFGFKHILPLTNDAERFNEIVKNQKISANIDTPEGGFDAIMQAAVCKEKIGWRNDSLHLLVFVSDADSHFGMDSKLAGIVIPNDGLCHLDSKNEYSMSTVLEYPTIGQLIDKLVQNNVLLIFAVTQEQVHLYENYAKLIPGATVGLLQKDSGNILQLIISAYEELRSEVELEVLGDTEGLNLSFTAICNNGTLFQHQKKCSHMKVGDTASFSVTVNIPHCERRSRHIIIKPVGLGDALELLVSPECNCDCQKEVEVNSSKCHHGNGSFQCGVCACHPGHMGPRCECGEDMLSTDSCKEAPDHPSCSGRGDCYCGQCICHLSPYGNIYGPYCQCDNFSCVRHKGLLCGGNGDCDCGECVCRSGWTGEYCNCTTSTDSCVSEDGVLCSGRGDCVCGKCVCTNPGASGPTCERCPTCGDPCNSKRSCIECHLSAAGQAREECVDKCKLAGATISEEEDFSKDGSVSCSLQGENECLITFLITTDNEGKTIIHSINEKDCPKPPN
# αvβ1, sequence (P06756 31-992 limits assumed): as the sequence (P06756 31-992 limits assumed) above
# αvβ1, sequence (P05556 21-728 limits assumed): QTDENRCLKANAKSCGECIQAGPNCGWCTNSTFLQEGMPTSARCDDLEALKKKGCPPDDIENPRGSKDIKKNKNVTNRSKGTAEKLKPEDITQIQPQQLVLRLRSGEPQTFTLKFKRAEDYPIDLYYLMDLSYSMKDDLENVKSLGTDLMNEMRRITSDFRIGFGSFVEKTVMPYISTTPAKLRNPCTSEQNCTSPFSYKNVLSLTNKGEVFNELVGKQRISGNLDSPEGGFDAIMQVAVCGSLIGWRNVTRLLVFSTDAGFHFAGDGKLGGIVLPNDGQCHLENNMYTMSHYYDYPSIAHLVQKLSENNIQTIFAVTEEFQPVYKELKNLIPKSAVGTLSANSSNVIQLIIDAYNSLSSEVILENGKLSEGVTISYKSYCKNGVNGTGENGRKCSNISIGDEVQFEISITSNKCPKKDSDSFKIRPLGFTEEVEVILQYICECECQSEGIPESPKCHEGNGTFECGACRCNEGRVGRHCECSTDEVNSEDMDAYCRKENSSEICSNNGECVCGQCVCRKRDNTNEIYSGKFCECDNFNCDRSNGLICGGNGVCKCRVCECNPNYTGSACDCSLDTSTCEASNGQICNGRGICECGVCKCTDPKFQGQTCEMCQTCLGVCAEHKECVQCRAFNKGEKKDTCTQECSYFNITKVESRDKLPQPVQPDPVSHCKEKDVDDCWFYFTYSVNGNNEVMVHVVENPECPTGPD
SMILES,IC50 (αvβ1) [nM],IC50 (αvβ6) [nM]
"O=C(NC[C@H](Nc1cccc2ccccc12)C(=O)O)[C@@H]1CCCN(CCCc2ccc3c(n2)NCCC3)C1 [Compound 261, (S)-2-(naphthalen-1-ylamino)-3-((R)-1-(3-(5,6,7,8-tetrahydro-1,8-naphthyridin-2-yl)propyl)piperdine-3-carboxamido)propanoic acid]",< 100,< 100
"O=C(N[C@@H](CNC(=O)[C@@H]1CCCN(CCCc2ccc3c(n2)NCCC3)C1)C(=O)O)C1CCCCC1 [Compound 262, (S)-2-(cyclohexanecarboxamido)-3-((R)-1-(3-(5,6,7,8-tetrahydro-1,8-naphthyridin-2-yl)propyl)piperidine-3-carboxamido)propanoic acid hydrochloride]",< 100,< 100
"CC1(C(=O)N[C@@H](CNC(=O)[C@@H]2CCCN(CCCc3ccc4c(n3)NCCC4)C2)C(=O)O)CCCCC1 [Compound 263, (S)-2-(1-methylcyclohexane-1-carboxamido)-3-((R)-1-(3-(5,6,7,8-tetrahydro-1,8-naphthyridin-2-yl)propyl)piperidine-3-carboxamido)propanoic acid hydrochloride]",< 100,< 100
"O=C(NC[C@H](NC(=O)[C@@H]1CCCC[C@H]1C(=O)N1CCCC1)C(=O)O)[C@@H]1CCCN(CCCc2ccc3c(n2)NCCC3)C1 [Compound 264, (S)-2-((1R,2R)-2-(pyrrolidine-1-carbonyl)cyclohexane-1-carboxamido)-3-((R)-1-(3-(5,6,7,8-tetrahydro-1,8-naphthyridin-2-yl)propyl)piperidine-3-carboxamido)propanoic acid]",< 100,< 100
"CC(C)(C)OC(=O)N[C@@H](CNC(=O)[C@@H]1CCCN(CCCc2ccc3c(n2)NCCC3)C1)C(=O)O [Compound 265, (S)-2-((tert-butoxycarbonyl)amino)-3-((R)-1-(3-(5,6,7,8-tetrahydro-1,8-naphthyridin-2-yl)propyl)piperidine-3-carboxamido)propanoic acid]",< 100,< 100
"CNC(=O)c1cccc(CNC(=O)[C@@H]2CCCC[C@H]2C(=O)N[C@@H](CNC(=O)[C@@H]2CCCN(CCCc3ccc4c(n3)NCCC4)C2)C(=O)O)c1 [Compound 266, (S)-2-((1R,2R)-2-((3-(methylcarbamoyl)benzyl)carbamoyl)cyclohexane-1-carboxamido)-3-((R)-1-(3-(5,6,7,8-tetrahydro-1,8-naphthyridin-2-yl)propyl)piperidine-3-carboxamido)propanoic acid]",< 100,< 100
"CN1CCc2ccc(S(=O)(=O)N3CCC[C@@H](C(=O)N[C@@H](CNC(=O)[C@@H]4CCCN(CCCc5ccc6c(n5)NCCC6)C4)C(=O)O)C3)cc21 [Compound 267, (S)-2-((R)-1-((1-methylindolin-6-yl)sulfonyl)piperidine-3-carboxamido)-3-((R)-1-(3-(5,6,7,8-tetrahydro-1,8-naphthyridin-2-yl)propyl)piperidine-3-carboxamido)propanoic acid]",< 100,< 100
"CO[C@H]1CCN(C(=O)[C@@H]2CCCC[C@H]2C(=O)N[C@@H](CNC(=O)[C@@H]2CCCN(CCCc3ccc4c(n3)NCCC4)C2)C(=O)O)C1 [Compound 268, (S)-2-((1R,2R)-2-((S)-3-methoxypyrrolidine-1-carbonyl)cyclohexane-1-carboxamido)-3-((R)-1-(3-(5,6,7,8-tetrahydro-1,8-naphthyridin-2-yl)propyl)piperidine-3-carboxamido)propanoic acid]",< 100,< 100
"CC1(CN[C@@H](CNC(=O)[C@@H]2CCCN(CCCc3ccc4c(n3)NCCC4)C2)C(=O)O)CCCCC1 [Compound 269, (S)-2-(((1-methylcyclohexyl)methyl)amino)-3-((R)-1-(3-(5,6,7,8-tetrahydro-1,8-naphthyridin-2-yl)propyl)piperidine-3-carboxamido)propanoic acid]",> 1000,100 to 1000
"O=C(NC[C@H](NC(=O)C12CCC(CC1)CC2)C(=O)O)[C@@H]1CCCN(CCCc2ccc3c(n2)NCCC3)C1 [Compound 270, (S)-2-(bicyclo[2.2.2]octane-1-carboxamido)-3-((R)-1-(3-(5,6,7,8-tetrahydro-1,8-naphthyridin-2-yl)propyl)piperidine-3-carboxamido)propanoic acid]",< 100,< 100
"O=C(NC[C@H](Nc1ncnc2ccccc12)C(=O)O)[C@@H]1CCCN(CCCc2ccc3c(n2)NCCC3)C1 [Compound 271, (S)-2-(quinazolin-4-ylamino)-3-((R)-1-(3-(5,6,7,8-tetrahydro-1,8-naphthyridin-2-yl)propyl)piperidine-3-carboxamido)propanoic acid]",< 100,< 100
"O=C(NC[C@H](NS(=O)(=O)c1ccccc1)C(=O)O)[C@@H]1CCCN(CCCc2ccc3c(n2)NCCC3)C1 [Compound 272, (S)-2-(phenylsulfonamido)-3-((R)-1-(3-(5,6,7,8-tetrahydro-1,8-naphthyridin-2-yl)propyl)piperidine-3-carboxamido)propanoic acid]",< 100,< 100
"O=C(NC[C@H](Nc1ccnc2ccccc12)C(=O)O)[C@@H]1CCCN(CCCc2ccc3c(n2)NCCC3)C1 [Compound 273, (S)-2-(quinolin-4-ylamino)-3-((R)-1-(3-(5,6,7,8-tetrahydro-1,8-naphthyridin-2-yl)propyl)piperidine-3-carboxamido)propanoic acid]",< 100,< 100
"O=C(NC[C@H](NS(=O)(=O)C1CCCCC1)C(=O)O)[C@@H]1CCCN(CCCc2ccc3c(n2)NCCC3)C1 [Compound 274, (S)-2-(cyclohexanesulfonamido)-3-((R)-1-(3-(5,6,7,8-tetrahydro-1,8-naphthyridin-2-yl)propyl)piperidine-3-carboxamido)propanoic acid hydrochloride]",< 100,< 100
"O=C(NC[C@H](NS(=O)(=O)c1ccc2c(c1)CCC2)C(=O)O)[C@@H]1CCCN(CCCc2ccc3c(n2)NCCC3)C1 [Compound 275, (2S)-2-(indan-5-ylsulfonylamino)-3-[[(3R)-1-[3-(5,6,7,8-tetrahydro-1,8-naphthyridin-2-yl)propyl]piperidine-3-carbonyl]amino]propanoic acid]",100 to 1000,< 100
"O=C(NC[C@H](Nc1ncnc2ccsc12)C(=O)O)[C@@H]1CCCN(CCCc2ccc3c(n2)NCCC3)C1 [Compound 276, (2S)-3-[[(3R)-1-[3-(5,6,7,8-tetrahydro-1,8-naphthyridin-2-yl)propyl]piperidine-3-carbonyl]amino]-2-(thieno[3,2-d]pyrimidin-4-ylamino)propanoic acid]",< 100,< 100
"Cc1csc2c(N[C@@H](CNC(=O)[C@@H]3CCCN(CCCc4ccc5c(n4)NCCC5)C3)C(=O)O)ncnc12 [Compound 277, (2S)-2-[(7-methylthieno[3,2-d]pyrimidin-4-yl)amino]-3-[[(3R)-1-[3-(5,6,7,8-tetrahydro-1,8-naphthyridin-2-yl)propyl]piperidine-3-carbonyl]amino]propanoic acid]",< 100,< 100
